According to US8933094B2, “Ethynyl compounds useful for treatment of CNS disorder” (Hoffmann-La Roche Inc., priority 2009, dated 2015):

Target: T1, human mGlu5a receptor (Homo sapiens, UniProt P41594)
T1 construct: expressed in transfected cells
Test: Intracellular Ca2+ mobilization assay (mGlu5 PAM)
Type: cell-based
Conditions: for EC50: HEK-293 cells stably transfected with human mGlu5a, L-glutamate added at EC20 after 10-30 min pre-incubation with test compound, read-out: EC50 (nM) mGlu5PAM; for Emax: maximal response in % of the maximal stimulatory effect obtained with saturating concentrations of L-glutamate, read-out: Eff. (%)
Procedure: A monoclonal HEK-293 cell line stably transfected with a cDNA encoding for the human mGlu5a receptor was generated; for the work with mGlu5 Positive Allosteric Modulators (PAMs), a cell line with low receptor expression levels and low constitutive receptor activity was selected to allow the differentiation of agonistic versus PAM activity. Cells were cultured according to standard protocols (Freshney, 2000) in Dulbecco's Modified Eagle Medium with high glucose supplemented with 1 mM glutamine, 10% (vol/vol) heat-inactivated bovine calf serum, Penicillin/Streptomycin, 50 μg/ml hygromycin and 15 μg/ml blasticidin (all cell culture reagents and antibiotics from Invitrogen, Basel, Switzerland).
About 24 hrs before an experiment, 5×10^4 cells/well were seeded in poly-D-lysine coated, black/clear-bottomed 96-well plates. The cells were loaded with 2.5 μM Fluo-4AM in loading buffer (1×HBSS, 20 mM HEPES) for 1 hr at 37° C. and washed five times with loading buffer. The cells were transferred into a Functional Drug Screening System 7000 (Hamamatsu, Paris, France), and 11 half logarithmic serial dilutions of test compound at 37° C. were added and the cells were incubated for 10-30 min. with on-line recording of fluorescence. Following this pre-incubation step, the agonist L-glutamate was added to the cells at a concentration corresponding to EC20 (typically around 80 μM) with on-line recording of fluorescence; in order to account for day-to-day variations in the responsiveness of cells, the EC20 of glutamate was determined immediately ahead of each experiment by recording of a full dose-response curve of glutamate.
Responses were measured as peak increase in fluorescence minus basal (i.e. fluorescence without addition of L-glutamate), normalized to the maximal stimulatory effect obtained with saturating concentrations of L-glutamate. Graphs were plotted with the % maximal stimulatory using XLfit, a curve fitting program that iteratively plots the data using Levenburg Marquardt algorithm. The single site competition analysis equation used was y=A+((B−A)/(1+((x/C)D))), where y is the % maximal stimulatory effect, A is the minimum y, B is the maximum y, C is the EC50, x is the log 10 of the concentration of the competing compound and D is the slope of the curve (the Hill Coefficient). From these curves the EC50 (concentration at which half maximal stimulation was achieved), the Hill coefficient as well as the maximal response in % of the maximal stimulatory effect obtained with saturating concentrations of L-glutamate were calculated.
A depression of the signal observed after addition of the EC20 concentration of L-glutamate was indicative of an inhibitory activity of the test compound.

T1 sequence (P41594 21-1180 isoform P41594-2 limits assumed): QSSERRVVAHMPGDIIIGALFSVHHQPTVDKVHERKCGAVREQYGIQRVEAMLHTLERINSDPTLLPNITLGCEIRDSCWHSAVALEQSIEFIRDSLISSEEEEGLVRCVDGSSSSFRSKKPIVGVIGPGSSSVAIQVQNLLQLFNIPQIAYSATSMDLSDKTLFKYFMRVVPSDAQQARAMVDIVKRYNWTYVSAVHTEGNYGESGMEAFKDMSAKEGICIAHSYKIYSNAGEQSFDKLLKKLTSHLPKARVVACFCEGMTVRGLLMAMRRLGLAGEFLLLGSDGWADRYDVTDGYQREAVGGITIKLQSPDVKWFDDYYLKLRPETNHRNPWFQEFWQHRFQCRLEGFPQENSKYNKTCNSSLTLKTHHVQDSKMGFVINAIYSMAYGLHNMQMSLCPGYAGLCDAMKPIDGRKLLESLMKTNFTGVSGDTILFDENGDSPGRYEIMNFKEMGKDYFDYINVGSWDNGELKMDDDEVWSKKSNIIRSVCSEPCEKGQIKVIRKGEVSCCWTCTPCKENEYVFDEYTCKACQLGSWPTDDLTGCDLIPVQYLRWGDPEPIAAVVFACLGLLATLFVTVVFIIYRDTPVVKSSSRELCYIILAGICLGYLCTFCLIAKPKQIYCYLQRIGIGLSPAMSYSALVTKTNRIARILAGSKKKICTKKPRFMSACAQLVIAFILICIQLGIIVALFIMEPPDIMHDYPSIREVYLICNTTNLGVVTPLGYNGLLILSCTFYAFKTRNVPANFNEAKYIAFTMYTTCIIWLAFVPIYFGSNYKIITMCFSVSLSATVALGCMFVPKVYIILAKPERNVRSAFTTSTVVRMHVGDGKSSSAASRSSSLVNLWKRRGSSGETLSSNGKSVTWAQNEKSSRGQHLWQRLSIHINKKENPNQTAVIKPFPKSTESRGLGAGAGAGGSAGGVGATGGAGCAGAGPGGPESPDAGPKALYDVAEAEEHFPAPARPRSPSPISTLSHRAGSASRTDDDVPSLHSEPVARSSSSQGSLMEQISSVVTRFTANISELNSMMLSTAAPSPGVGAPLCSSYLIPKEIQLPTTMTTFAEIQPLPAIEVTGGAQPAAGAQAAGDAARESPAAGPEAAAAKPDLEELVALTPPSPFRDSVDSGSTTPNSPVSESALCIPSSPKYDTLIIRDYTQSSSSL

Work on `CC(C)(C)c1cc2ccc(C#Cc3ccccc3)cn2n1` [Example 41, 2-tert-Butyl-6-phenylethynyl-pyrazolo[1,5-a]pyridine] yielded an EC50 of 32 nM and an Emax of 122%.

Work on `CC(C)(C)c1nc2ncc(C#Cc3ccccc3)cn2n1` [Example 42, 2-tert-Butyl-6-phenylethynyl-[1,2,4]triazolo[1,5-a]pyrimidine] yielded an EC50 of 9 nM and an Emax of 73%.

`CC(C)(C)c1nc2ncc(C#Cc3cc(F)ccc3F)cn2n1` [Example 43, 2-tert-Butyl-6-(2,5-difluoro-phenylethynyl)-[1,2,4]triazolo[1,5-a]pyrimidine] gave an EC50 of 14 nM and an Emax of 37%.

`CC(C)(C)c1nc2ncc(C#Cc3cccc(F)c3)cn2n1` [Example 44, 2-tert-Butyl-6-(3-fluoro-phenylethynyl)-[1,2,4]triazolo[1,5-a]pyrimidine] showed an EC50 of 9 nM and an Emax of 85%.

`CC(C)(C)c1nc2ncc(C#Cc3ccc(F)c(F)c3)cn2n1` [Example 45, 2-tert-Butyl-6-(3,4-difluoro-phenylethynyl)-[1,2,4]triazolo[1,5-a]pyrimidine] gave an EC50 of 28 nM and an Emax of 54%.

`CC(C)(C)c1nc2ncc(C#Cc3cncc(Cl)c3)cn2n1` [Example 46, 2-tert-Butyl-6-(5-chloro-pyridin-3-ylethynyl)-[1,2,4]triazolo[1,5-a]pyrimidine] was tested, and the EC50 was 47 nM and the Emax was 49%.

`C(#Cc1cnc2nc(N3CCOCC3)nn2c1)c1ccccc1` [Example 47, 2-Morpholin-4-yl-6-phenylethynyl-[1,2,4]triazolo[1,5-a]pyrimidine] was tested, and the EC50 was 69 nM and the Emax was 119%.

`Cc1cccc(C#Cc2cnc3nc(N4CCOCC4)nn3c2)c1` [Example 48, 2-Morpholin-4-yl-6-m-tolylethynyl-[1,2,4]triazolo[1,5-a]pyrimidine] gave an EC50 of 58 nM and an Emax of 84%.

Work on `Fc1cccc(C#Cc2cnc3nc(N4CCOCC4)nn3c2)c1` [Example 49, 6-(3-Fluoro-phenylethynyl)-2-morpholin-4-yl-[1,2,4]triazolo[1,5-a]pyrimidine] yielded an EC50 of 50 nM and an Emax of 101%.

With `Clc1cccc(C#Cc2cnc3nc(N4CCOCC4)nn3c2)c1` [Example 50, 6-(3-Chloro-phenylethynyl)-2-morpholin-4-yl-[1,2,4]triazolo[1,5-a]pyrimidine] the EC50 was 39 nM and the Emax was 88%.

Compound `C(#Cc1cnc2nc(N3CCCC3)nn2c1)c1ccccc1` [Example 51, 6-Phenylethynyl-2-pyrrolidin-1-yl-[1,2,4]triazolo[1,5-a]pyrimidine] has an EC50 of 56 nM and an Emax of 141%.
